{"source": "patent US20050288270A1", "about": "“New aminopyridine derivatives and their use as pharmaceuticals” (Pfizer Inc, priority 2004, published 2005)", "key": {"D2 receptor": {"biological_target": "D2 receptor (Homo sapiens, UniProt P14416)", "sequence (P14416 whole entry)": "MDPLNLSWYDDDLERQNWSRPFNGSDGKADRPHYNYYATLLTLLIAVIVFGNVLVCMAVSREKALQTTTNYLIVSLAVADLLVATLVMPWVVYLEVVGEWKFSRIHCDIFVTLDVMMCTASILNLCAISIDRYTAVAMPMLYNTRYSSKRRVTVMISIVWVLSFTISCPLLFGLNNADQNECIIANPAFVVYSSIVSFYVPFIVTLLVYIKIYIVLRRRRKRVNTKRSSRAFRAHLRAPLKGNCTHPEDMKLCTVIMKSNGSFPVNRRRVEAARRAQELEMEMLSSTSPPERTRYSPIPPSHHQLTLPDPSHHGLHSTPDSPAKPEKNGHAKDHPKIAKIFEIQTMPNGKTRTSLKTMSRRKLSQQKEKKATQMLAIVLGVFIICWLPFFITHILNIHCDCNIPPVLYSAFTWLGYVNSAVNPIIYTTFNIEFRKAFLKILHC", "test": "D3/D2 agonist assay, functional response at D2 receptor", "format": "cell-based", "conditions": "at 1000 nM; relative to the maximal effect of pramipexole", "method": "(§1) Activity at the dopamine D3 receptor may be determined using the methods described in WO 2004/052372. […] Selectivity is calculated as the D2 EC50 value divided by the D3 EC50 value. Where the value of the D2 EC50 was >10000, a figure of 10000 was used in the calculation."}, "dopamine D3 receptor": {"biological_target": "dopamine D3 receptor (Homo sapiens, UniProt P35462)", "sequence (P35462 whole entry)": "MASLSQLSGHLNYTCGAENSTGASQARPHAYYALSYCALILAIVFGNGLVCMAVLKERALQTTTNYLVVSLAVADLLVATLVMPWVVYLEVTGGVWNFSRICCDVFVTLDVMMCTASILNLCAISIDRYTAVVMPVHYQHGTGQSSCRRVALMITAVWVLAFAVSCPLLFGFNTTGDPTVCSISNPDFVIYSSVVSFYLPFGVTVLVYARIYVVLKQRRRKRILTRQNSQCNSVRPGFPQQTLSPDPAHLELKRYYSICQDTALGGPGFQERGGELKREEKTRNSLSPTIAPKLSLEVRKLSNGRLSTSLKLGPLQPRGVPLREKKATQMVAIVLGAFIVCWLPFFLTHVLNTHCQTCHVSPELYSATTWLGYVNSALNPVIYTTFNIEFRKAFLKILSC", "test": "D3/D2 agonist assay, functional potency at D3 receptor", "format": "cell-based", "method": "as §1"}}}
{"smiles": "CCCN1CC(c2ccc(N)nc2)OCC1CO", "note": "(single isomer, unassigned) [Example 14, [6-(6-Aminopyridin-3-yl)-4-propylmorpholin-3-yl]methanol]", "values": [{"measurement": "response against the D2 receptor", "setting": "D2 receptor", "result": 22, "unit": "%"}, {"measurement": "EC50", "setting": "dopamine D3 receptor; agonist, read-out: functional potency at the D3 receptor, expressed as an EC50", "result": 20, "unit": "nM"}, {"measurement": "Emax", "setting": "dopamine D3 receptor; relative to the maximal effect of standard agent pramipexole, read-out: Emax (maximal response value)", "result": 98, "unit": "%"}]}
